# Measurements from patent US12364738B2, “Composition comprising at least one enzyme and at least one microbicidal molecule for the prevention or treatment of post-implant infections” (ONELIFE S.A., priority 2016, dated 2025).
# Read-outs that look alike come from different tables or passages of the source. Marks after values point to notes of the source that are not given here.
# What was measured:
# [1] = cited from earlier work
# [2] = test system: isolate 11, P. aeroginosa strain 04/190 (urinary catheter), biofilm; conditions: static model, 24 h biofilm, 24 h treatment, ciprofloxacin 0.15 to 40 mg/L
# Protocol: (§1) The measurement was conventionally carried out by absorption photometry (measurement at 590 nm with the Spectramax M4 equipment).
# (§2) From each of the isolates given in table 1, biofilms (n=4) were developed over 24 hours at a temperature of 37° C. in the wells of a 96-well plate containing 200 μL of a TSB culture medium (Tryptic Soy Broth VWR) supplemented with 1% glucose and 2% sodium chloride.
# (§3) Before proceeding with the measurement of the viability of the bacterial cells with resazurin, the plates containing the developed biofilms were washed with a PBS buffer (pH=7.4) then incubated with resazurin (0.01 mg/L) for 1 hour in the dark.
# [3] = test system: isolate 9, E. faecalis strain 9555 (urinary catheter), biofilm; conditions: static model, 24 h biofilm, 24 h treatment, ciprofloxacin 0.15 to 40 mg/L
# Protocol: as §1, §2, §3
# [4] = test system: isolate 7, E. faecalis strain 9794 (urinary catheter), biofilm; conditions: static model, 24 h biofilm, 24 h treatment, ciprofloxacin 0.15 to 40 mg/L
# Protocol: as §1, §2, §3
# [5] = test system: isolate 8, E. faecalis strain 9781 (urinary catheter), biofilm; conditions: static model, 24 h biofilm, 24 h treatment, ciprofloxacin 0.15 to 40 mg/L
# Protocol: as §1, §2, §3
# [6] = test system: isolate 4, S. epidermis strain 80224420266 (central venous catheter), biofilm; conditions: static model, 24 h biofilm, 24 h treatment, ciprofloxacin 0.15 to 40 mg/L
# Protocol: as §1, §2, §3
# [7] = test system: isolate 3, S. aureus MRSA strain 80124474762 (knee screw), biofilm; conditions: static model, 24 h biofilm, 24 h treatment, ciprofloxacin 0.15 to 40 mg/L
# Protocol: as §1, §2, §3
# [8] = test system: isolate 2, S. aureus MRSA strain 80224422456 (knee prosthesis), biofilm; conditions: static model, 24 h biofilm, 24 h treatment, ciprofloxacin 0.15 to 40 mg/L
# Protocol: as §1, §2, §3
# [9] = test system: isolate 1, S. aureus isolated from a pacemaker, biofilm; assay: Confocal microscopic images with LIVE/DEAD staining, isolate 1; format: cell-based; conditions: 24 h biofilm, 24 h treatment, ciprofloxacin 1 mg/L, FIGS. 4 and 5
# Protocol: For isolate 1 (S. aureus isolated from a pacemaker on which a biofilm developed in the human body after implantation), confocal images were taken and correspond to FIGS. 3 to 5.
# Before obtaining the different images, staining was carried out with the LIVE/DEAD kit (Invitrogen) for 30 minutes before rinsing with a PBS buffer.
# [10] = test system: isolate 5, E. coli strain 6081 (urinary catheter), biofilm; conditions: static model, 24 h biofilm, 24 h treatment, ciprofloxacin 0.15 to 40 mg/L
# Protocol: as §1, §2, §3
# [11] = test system: isolate 6, E. coli strain 5701 (orthopaedic implant), biofilm; conditions: static model, 24 h biofilm, 24 h treatment, ciprofloxacin 0.15 to 40 mg/L
# Protocol: as §1, §2, §3
# [12] = test system: isolate 5, E. coli isolated from a urinary catheter, biofilm; conditions: dynamic model, 48 h biofilm on PEG protrusions, 24 h treatment, agitation 120 RPM
# Protocol: (§4) In order to judge the effectiveness of a post-implantation treatment carried out with a composition according to the invention, the viability of the bacteria was measured by following the development of the colour of the resazurin (7-Hydroxy-3H-phenoxazin-3-on 10-oxide), this colour changing according to the redox potential which depends on microbial activity. The measurement was conventionally carried out by absorption photometry (measurement at 590 nm with the Spectramax M4 equipment).
# (§5) Before proceeding with the measurement of the viability of the bacterial cells with resazurin, the PEG plates with the protrusions containing the developed biofilms were incubated with resazurin for 2 hours in the dark.
# [13] = test system: isolate 1, S. aureus MRSA strain 80124430375 (pacemaker), biofilm; conditions: static model, 24 h biofilm, 24 h treatment, ciprofloxacin 0.15 to 40 mg/L
# Protocol: as §1, §2, §3
# [14] = test system: isolate 10, P. aeroginosa strain DIV5508 (central venous catheter), biofilm; conditions: static model, 24 h biofilm, 24 h treatment, ciprofloxacin 0.15 to 40 mg/L
# Protocol: as §1, §2, §3
# [15] = test system: isolate 1, S. aureus isolated from a pacemaker, biofilm; conditions: dynamic model, 48 h biofilm on PEG protrusions, 24 h treatment, agitation 120 RPM
# Protocol: as §4, §5
# [16] = serum, after administration of the antibiotic, based on EUCAST, used as test concentration
smiles,measurement,setting,value
C[C@@H](O)[C@H]1C(=O)N2C(C(=O)O)=C(S[C@@H]3CN[C@H](C(=O)N(C)C)C3)[C@H](C)[C@H]12 [meropenem],"Cmin, minimum serum concentration",[1]; in vivo,100 ng/mL
same,"Cmax, maximum serum concentration after administration of the antibiotic",[1]; [16],20000 ng/mL
NCC[C@H](O)C(=O)N[C@@H]1C[C@H](N)[C@@H](O[C@H]2O[C@H](CN)[C@@H](O)[C@H](O)[C@H]2O)[C@H](O)[C@H]1O[C@H]1O[C@H](CO)[C@@H](O)[C@H](N)[C@H]1O [amikacin],"Cmin, minimum serum concentration",[1]; in vivo,5000 ng/mL
same,"Cmax, maximum serum concentration after administration of the antibiotic",[1]; [16],24000 ng/mL
"O=C(O)c1cn(C2CC2)c2cc(N3CCNCC3)c(F)cc2c1=O [solution A, ciprofloxacin]",Concentration of the antibiotic molecule in a solution comprising the antibiotic alone (solution A) to reduce the viability of the bacteria by 50% (EC50),[2],>40 µg/mL
same,Concentration of the antibiotic molecule in a solution comprising the antibiotic alone (solution A) to reduce the viability of the bacteria by 50% (EC50),[3],>40 µg/mL
same,"Cmin, minimum serum concentration",[1]; [16],600 ng/mL
same,Concentration of the antibiotic molecule in a solution comprising the antibiotic alone (solution A) to reduce the viability of the bacteria by 50% (EC50),[4],>40 µg/mL
same,Concentration of the antibiotic molecule in a solution comprising the antibiotic alone (solution A) to reduce the viability of the bacteria by 50% (EC50),[5],>40 µg/mL
same,Concentration of the antibiotic molecule in a solution comprising the antibiotic alone (solution A) to reduce the viability of the bacteria by 50% (EC50),[6],1.77 µg/mL
same,Concentration of the antibiotic molecule in a solution comprising the antibiotic alone (solution A) to reduce the viability of the bacteria by 50% (EC50),[7],1.2 µg/mL
same,Concentration of the antibiotic molecule in a solution comprising the antibiotic alone (solution A) to reduce the viability of the bacteria by 50% (EC50),[8],0.8 µg/mL
same,live/dead state of the bacteria in confocal images,[9],numerous bacteria are still alive
same,Concentration of the antibiotic molecule in a solution comprising the antibiotic alone (solution A) to reduce the viability of the bacteria by 50% (EC50),[10],2.7 µg/mL
same,Concentration of the antibiotic molecule in a solution comprising the antibiotic alone (solution A) to reduce the viability of the bacteria by 50% (EC50),[11],>40 µg/mL
same,Concentration of the antibiotic molecule in a solution comprising the antibiotic alone (solution A) to reduce the viability of the bacteria by 50% (EC50),[12],3.18 µg/mL
same,Concentration of the antibiotic molecule in a solution comprising the antibiotic alone (solution A) to reduce the viability of the bacteria by 50% (EC50),[13],>40^a mg/L
same,Concentration of the antibiotic molecule in a solution comprising the antibiotic alone (solution A) to reduce the viability of the bacteria by 50% (EC50),[14],>40 µg/mL
same,Concentration of the antibiotic molecule in a solution comprising the antibiotic alone (solution A) to reduce the viability of the bacteria by 50% (EC50),[15],0.7 µg/mL
COc1c(N2C[C@@H]3CCCN[C@@H]3C2)c(F)cc2c(=O)c(C(=O)O)cn(C3CC3)c12 [moxifloxacin],"Cmax, maximum serum concentration after administration of the antibiotic",[1]; [16],3600 ng/mL
same,"Cmin, minimum serum concentration",[1]; [16],300 ng/mL
NC[C@H]1O[C@H](O[C@H]2[C@H](O)[C@@H](O[C@H]3O[C@H](CO)[C@@H](O)[C@H](N)[C@H]3O)[C@H](N)C[C@@H]2N)[C@H](N)C[C@@H]1O [tobramycin],"Cmin, minimum serum concentration",[1]; in vivo,900 ng/mL
same,"Cmax, maximum serum concentration after administration of the antibiotic",[1]; [16],4000 ng/mL
